This is an account of results in patent US20170050939A1, “SMALL MOLECULE INHIBITORS OF G PROTEIN COUPLED RECEPTOR 6 KINASE POLYPEPTIDES” (Mayo Foundation for Medical Education and Research, priority 2014, published 2017).

Usually pIC50 stands for −log10 of the IC50, conventionally taken in molar units.

pIC50: −log10 of the molar value.

One experiment deals with T1, GRK6, recombinant full-length GST-tagged human protein (Homo sapiens, UniProt P43250).
T1 construct: GRK6, recombinant full-length GST-tagged human protein; GST
T1 sequence (P43250 whole entry): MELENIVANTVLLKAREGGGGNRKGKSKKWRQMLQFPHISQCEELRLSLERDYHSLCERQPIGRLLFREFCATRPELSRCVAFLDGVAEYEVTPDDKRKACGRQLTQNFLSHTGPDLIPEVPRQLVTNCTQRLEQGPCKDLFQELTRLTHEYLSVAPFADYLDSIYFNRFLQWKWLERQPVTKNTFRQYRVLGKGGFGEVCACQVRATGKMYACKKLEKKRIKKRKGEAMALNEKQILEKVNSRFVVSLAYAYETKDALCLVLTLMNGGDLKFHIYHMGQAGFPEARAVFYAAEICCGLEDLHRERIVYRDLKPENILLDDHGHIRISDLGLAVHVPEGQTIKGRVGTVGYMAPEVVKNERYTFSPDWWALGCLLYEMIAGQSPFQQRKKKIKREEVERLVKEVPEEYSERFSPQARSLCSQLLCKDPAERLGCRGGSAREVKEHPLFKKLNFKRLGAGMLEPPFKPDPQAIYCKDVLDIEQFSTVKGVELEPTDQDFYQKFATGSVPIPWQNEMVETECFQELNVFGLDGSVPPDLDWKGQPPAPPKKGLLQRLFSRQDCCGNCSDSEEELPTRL
Briefly: GRK6 IC50 determination (8-point concentration-response).
Settings: not given
In kind it is biochemical. From the text: Two hundred forty compounds were further characterized by determining IC50 values in a GRK6 assay. This screen has been previously described in WO 2013/063458, which is incorporated by reference in its entirety herein.
Regarding `CC(=O)Nc1cccc(-c2cc(-c3nnc(SCC(=O)O)[nH]3)cc([N+](=O)[O-])c2)c1` [Compound 42], the pIC50 was 6.37.
In the case of `O=C(O)CSc1nnc(-c2cc(-c3ccc4[nH]c(-c5ccccc5)cc4c3)cc([N+](=O)[O-])c2)[nH]1` [Compound 33, 2-((3-(3-nitro-5-(2-phenyl-1H-indol-5-yl)phenyl)-1H-1,2,4-triazol-5-yl)thio)acetic acid], the pIC50 was 6.52.
For `COc1ccc(NC(=O)c2cccc(-c3nnc(SCC(=O)O)[nH]3)c2)cc1` [Compound 170], the negative logarithm of the IC50 (pIC50) is 4.67.
`O=C(O)CSc1nnc(-c2cc(NC(=O)c3ccco3)cc(-c3ccc4ccccc4c3)c2)[nH]1` [Compound 59]: the pIC50 is 6.11.
Turning to `CN1CCOc2cc(-c3nnc(SCC(=O)O)[nH]3)ccc21` [Compound 166], the pIC50 is 4.69.
Same read-out and setting: to `O=C(O)CSc1nnc(-c2cc(-c3ccc4scnc4c3)cc([N+](=O)[O-])c2)[nH]1` [Compound 20] belongs 6.74.
As for `O=C(O)CSc1nnc(-c2cc(-c3ccc(O)cc3)cc([N+](=O)[O-])c2)[nH]1` [Compound 22], the negative logarithm of the IC50 (pIC50) was 6.73.
For the molecule `O=C(O)CSc1nnc(-c2cc(-c3cccc4cnccc34)cc([N+](=O)[O-])c2)[nH]1` [Compound 37], the pIC50 is 6.44.
On to `O=C(O)CSc1nnc(-c2ccc(OCc3ccccc3)c([N+](=O)[O-])c2)[nH]1` [Compound 86], for which the pIC50 is 6.03.
Take `CN(C)c1ccc(-c2cc(-c3nnc(SCC(=O)O)[nH]3)cc([N+](=O)[O-])c2)cc1` [Compound 52]: the pIC50 was 6.29.
On to `N#Cc1cc2cc(-c3cc(-c4nnc(SCC(=O)O)[nH]4)cc([N+](=O)[O-])c3)ccc2[nH]1` [Compound 232], for which the pIC50 is 6.74.
In the case of `O=C(O)CSc1nnc(-c2cc(-c3cccc4[nH]ncc34)cc([N+](=O)[O-])c2)[nH]1` [Compound 10], the pIC50 was 6.94.
As to `COc1ccncc1-c1cc(-c2ccc3ccccc3c2)cc(-c2nnc(SCC(=O)O)[nH]2)c1` [Compound 36], the pIC50 is 6.45.
In the case of `N#CCc1cc(-c2ccc3ccccc3c2)cc(-c2nnc(SCC(=O)O)[nH]2)c1` [Compound 18], the pIC50 is 6.75.
Same read-out and setting: to `O=C(O)CSc1nnc(-c2ccc3nsnc3c2)[nH]1` [Compound 117] belongs 5.31.
For `Cn1ccc2ccc(-c3cc(-c4nnc(SCC(=O)O)[nH]4)cc([N+](=O)[O-])c3)cc21` [Compound 1], the pIC50 was 7.30.
In the case of `O=C(O)CSc1nnc(-c2cc(-c3ccoc3)cc(-c3ccc4ccccc4c3)c2)[nH]1` [Compound 56], the pIC50 is 6.16.
As for `Cn1ccc2c(-c3cc(-c4nnc(SCC(=O)O)[nH]4)cc([N+](=O)[O-])c3)cccc21` [Compound 16], the negative logarithm of the IC50 (pIC50) was 6.85.
With `O=C(O)CSc1nnc(-c2cc(-c3cccc4[nH]ccc34)cc([N+](=O)[O-])c2)[nH]1` [Compound 8], the pIC50 is 7.00.
As for `Cc1cccc(-c2nnc(SCC(=O)O)[nH]2)c1` [Compound 156], the pIC50 was 4.84.
For the molecule `O=C(O)CSc1nnc(-c2cc(-c3cn[nH]c3)cc([N+](=O)[O-])c2)[nH]1` [Compound 74], the pIC50 is 6.42.
For the molecule `O=C(O)CSc1nnc(-c2cccc(C(=O)Nc3cccc(Cl)c3)c2)[nH]1` [Compound 135], the pIC50 is 5.10.
For `O=C(O)CSc1nnc(-c2cc(-c3ccc4[nH]ccc4c3)cc([N+](=O)[O-])c2)[nH]1` [Compound 5], the pIC50 was 7.13.
Same read-out and setting: to `COc1cc(-c2nnc(SCC(=O)O)[nH]2)cc2c1OCO2` [Compound 108] belongs 5.46; to `O=C(O)CSc1nnc(-c2cc(-c3cccnc3)cc(-c3ccc4ccccc4c3)c2)[nH]1` [Compound 31], 6.55; to `O=C(O)CSc1nnc(-c2cccc(Oc3ccccc3)c2)[nH]1` [Compound 150], 4.91.
The same measure, in the same setting: to `O=C(O)CSc1nnc(-c2cc(OCc3ccccc3)cc([N+](=O)[O-])c2)[nH]1` [Compound 77] belongs 6.16; to `O=C(O)CSc1nc(-c2cc(Br)cc(-c3ccc4ccccc4c3)c2)n[nH]1` [Compound 40], 6.38.
In the case of `O=C(O)CSc1nnc(-c2ccc3c(c2)OC(F)(F)O3)[nH]1` [Compound 136], the pIC50 was 5.10.
The same measure, in the same setting: in the case of `O=C(O)CSc1nnc(-c2cc(-c3cccc4c3oc3ccccc34)cc([N+](=O)[O-])c2)[nH]1` [Compound 237] it was 6.36.
Consider `O=C(O)CSc1nnc(-c2cc(NC(=O)c3ccoc3)cc(-c3ccc4ccccc4c3)c2)[nH]1` [Compound 67], for which the pIC50 is 5.88.
The same measure, in the same setting: in the case of `CCn1cc(-c2cc(-c3nnc(SCC(=O)O)[nH]3)cc([N+](=O)[O-])c2)cn1` [Compound 73] it was 6.47.
For `O=C(O)CSc1nnc(-c2cc3c(cc2[N+](=O)[O-])OCO3)[nH]1` [Compound 212], the pIC50 is less than 4.24.
Take `O=C(O)CSc1nnc(-c2cc(-c3ccc4nccnc4c3)cc([N+](=O)[O-])c2)[nH]1` [Compound 50]: the pIC50 is 6.29.
Consider `Cc1c(-c2cc(-c3nnc(SCC(=O)O)[nH]3)cc([N+](=O)[O-])c2)ccc2[nH]c(C#N)cc12` [Compound 236], for which the pIC50 was 6.40.
For `O=C(O)CSc1nnc(-c2cc(-c3ccc4ccccc4c3)cc([N+](=O)[O-])c2)[nH]1` [Compound 6], the negative logarithm of the IC50 (pIC50) is 7.11.
Still for that read-out and setting: in the case of `O=C(O)CSc1nnc(-c2cccc3cc[nH]c23)[nH]1` [Compound 153] it was 4.87; in that of `CN1CCOc2cc(-c3cc(-c4nnc(SCC(=O)O)[nH]4)cc([N+](=O)[O-])c3)ccc21` [Compound 29], 6.57.
Turning to `O=C(O)CSc1nnc(-c2cc(-c3ccc(C(F)(F)F)nc3)cc(-c3ccc4ccccc4c3)c2)[nH]1` [Compound 70], the pIC50 was 5.56.
Still for that read-out and setting: in the case of `O=C(O)CSc1nnc(-c2cc(-c3ccc4c(c3)[nH]c3ccccc34)cc([N+](=O)[O-])c2)[nH]1` [Compound 240] it was 6.03.
As for `CC(=O)Nc1cc(-c2ccc3ccccc3c2)cc(-c2nnc(SCC(=O)O)[nH]2)c1` [Compound 35], the pIC50 is 6.45.
Turning to `NC(=O)c1cc2cc(-c3cc(-c4n[nH]c(SCC(=O)O)n4)cc([N+](=O)[O-])c3)ccc2[nH]1` [Compound 228], the pIC50 is 7.00.
For `Cn1ccc(-c2cc(-c3nnc(SCC(=O)O)[nH]3)cc([N+](=O)[O-])c2)n1` [Compound 75], the pIC50 is 6.37.
Regarding `O=C(O)CSc1nnc(-c2cccc(C(=O)Nc3cccc4[nH]ccc34)c2)[nH]1` [Compound 143], the pIC50 was 5.01.
For the molecule `O=C(O)CSc1nnc(-c2cc(-c3ccncc3)cc(-c3ccc4ccccc4c3)c2)[nH]1` [Compound 69], the pIC50 was 5.73.
Regarding `COc1cccc(NC(=O)c2cccc(-c3nnc(SCC(=O)O)[nH]3)c2)c1` [Compound 151], the pIC50 was 4.89.
For `CN(C)c1cccc(-c2cc(-c3nnc(SCC(=O)O)[nH]3)cc([N+](=O)[O-])c2)c1` [Compound 53], the negative-log IC50 (pIC50) was 6.27.
`O=C(O)CSc1nnc(-c2ccc3ncccc3c2)[nH]1` [Compound 107]: the pIC50 was 5.47.
Still for that read-out and setting: in the case of `N#Cc1cc(-c2ccc3ccccc3c2)cc(-c2nnc(SCC(=O)O)[nH]2)c1` [Compound 17] it was 6.77.
In the case of `O=C(O)CSc1nnc(-c2cc(-c3ccc4[nH]ncc4c3)cc([N+](=O)[O-])c2)[nH]1` [Compound 15], the pIC50 was 6.85.
For `O=C(O)CSc1nnc(-c2cc(-c3ccc4c(c3)OCO4)cc([N+](=O)[O-])c2)[nH]1` [Compound 30], the pIC50 is 6.56.
As to `O=C(O)CSc1nnc(-c2cccc(C(=O)Nc3ccccc3Cl)c2)[nH]1` [Compound 186], the negative logarithm of the IC50 (pIC50) is 4.32.
The same measure, in the same setting: to `Cc1noc(C)c1-c1cc(-c2nnc(SCC(=O)O)[nH]2)cc([N+](=O)[O-])c1` [Compound 91] belongs 5.86; to `Cn1cc(Cl)c2cc(-c3cc(-c4n[nH]c(SCC(=O)O)n4)cc([N+](=O)[O-])c3)ccc21` [Compound 227], 7.22; to `O=C(O)CSc1nnc(-c2cccc(C(=O)Nc3cccnc3)c2)[nH]1` [Compound 177], 4.47.

The same experiment, now with this note: 20 nM GRK6, 12 μM ATP (Km), 1 μM Peptide 216, 7 h incubation.
For `COc1cc(-c2nnc(SCC(=O)O)[nH]2)cc([N+](=O)[O-])c1O` [Compound 158], the pIC50 is 4.80.
The same measure, in the same setting: in the case of `COc1cc(F)c(-c2nnc(SCC(=O)O)[nH]2)cc1OC` [Compound 172] it was 4.63; in that of `C[S+]([O-])c1cccc(-c2nnc(SCC(=O)O)[nH]2)c1` (stereo not drawn) [Compound 162], 4.76.
Turning to `CN(C)c1ccc(-c2nnc(SCC(=O)O)[nH]2)c([N+](=O)[O-])c1` [Compound 183], the pIC50 is 4.40.
Regarding `O=C(O)CSc1nnc(-c2ccc(-c3ccccc3)cc2)[nH]1` [Compound 133], the pIC50 is 5.13.
In the case of `COc1cc(-c2nnc(SCC(=O)O)[nH]2)ccc1OC(C)=O` [Compound 144], the pIC50 was 5.00.
Same read-out and setting: in the case of `COc1ccc(F)c(-c2nnc(SCC(=O)O)[nH]2)c1` [Compound 163] it was 4.74; in that of `O=C(O)CSc1nnc(-c2cccc(-n3cncn3)c2)[nH]1` [Compound 112], 5.35.
Same read-out and setting: in the case of `O=C(O)CSc1nnc(-c2ccc(-n3ccnc3)cc2)[nH]1` [Compound 132] it was 5.13; in that of `CSc1ccccc1-c1nnc(SCC(=O)O)[nH]1` [Compound 188], 4.13.
In the case of `N#Cc1cccc(-c2nnc(SCC(=O)O)[nH]2)c1` [Compound 96], the pIC50 was 5.64.
For the molecule `O=C(O)CSc1nnc(-c2cccc(N3CCCCC3)c2)[nH]1` [Compound 187], the pIC50 was 4.29.
Take `COc1cccc(-c2nnc(SCC(=O)O)[nH]2)c1` [Compound 121]: the pIC50 was 5.23.
For `O=C(O)CSc1nnc(-c2cccc(N3CCNCC3)c2)[nH]1` [Compound 171], the pIC50 was 4.66.
Consider `O=C(O)CSc1nnc(-c2ccc(O)c(O)c2)[nH]1` [Compound 119], for which the pIC50 is 5.30.
Regarding `O=C(O)CSc1nnc(-c2cccc(F)c2O)[nH]1` [Compound 138], the pIC50 is 5.06.
For the molecule `O=C(O)CSc1nnc(-c2ccc(OC3CCNCC3)cc2)[nH]1` [Compound 182], the pIC50 is 4.40.
